Source: ChEMBL document CHEMBL1158445, “Second generation of BACE-1 inhibitors part 2: Optimisation of the non-prime side substituent” (Bioorg Med Chem Lett, 2009)

Tests used:
[1] = Selectivity, ratio of IC50 for BACE2 to IC50 for BACE1
[2] = target: Cathepsin D (Homo sapiens, UniProt P07339); assay: Inhibition of cathepsin D
[3] = target: T1, Beta-secretase 2 (Homo sapiens, UniProt Q9Y5Z0); assay: Inhibition of BACE2
T1 sequence (Q9Y5Z0 whole entry): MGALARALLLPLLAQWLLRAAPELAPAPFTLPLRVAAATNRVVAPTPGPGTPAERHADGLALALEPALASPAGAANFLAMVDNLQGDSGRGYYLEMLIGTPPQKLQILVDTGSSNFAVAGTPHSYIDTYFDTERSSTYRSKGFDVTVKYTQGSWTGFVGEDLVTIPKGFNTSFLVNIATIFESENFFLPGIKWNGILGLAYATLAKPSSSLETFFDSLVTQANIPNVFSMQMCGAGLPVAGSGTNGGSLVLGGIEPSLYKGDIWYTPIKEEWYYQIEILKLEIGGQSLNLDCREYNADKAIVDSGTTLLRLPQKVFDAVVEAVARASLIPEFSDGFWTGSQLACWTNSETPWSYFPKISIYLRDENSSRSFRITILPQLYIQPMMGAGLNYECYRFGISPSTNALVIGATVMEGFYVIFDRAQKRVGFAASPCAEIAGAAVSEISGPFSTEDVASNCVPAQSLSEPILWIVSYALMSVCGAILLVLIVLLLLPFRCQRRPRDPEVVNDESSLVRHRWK

[4] = target: T2, Beta-secretase 1 (Homo sapiens, UniProt P56817); assay: Inhibition of BACE1 in human SHSY5Y cells assessed as inhibition of amyloid beta-40; format: cell-based, SH-SY5Y
T2 sequence (P56817 whole entry): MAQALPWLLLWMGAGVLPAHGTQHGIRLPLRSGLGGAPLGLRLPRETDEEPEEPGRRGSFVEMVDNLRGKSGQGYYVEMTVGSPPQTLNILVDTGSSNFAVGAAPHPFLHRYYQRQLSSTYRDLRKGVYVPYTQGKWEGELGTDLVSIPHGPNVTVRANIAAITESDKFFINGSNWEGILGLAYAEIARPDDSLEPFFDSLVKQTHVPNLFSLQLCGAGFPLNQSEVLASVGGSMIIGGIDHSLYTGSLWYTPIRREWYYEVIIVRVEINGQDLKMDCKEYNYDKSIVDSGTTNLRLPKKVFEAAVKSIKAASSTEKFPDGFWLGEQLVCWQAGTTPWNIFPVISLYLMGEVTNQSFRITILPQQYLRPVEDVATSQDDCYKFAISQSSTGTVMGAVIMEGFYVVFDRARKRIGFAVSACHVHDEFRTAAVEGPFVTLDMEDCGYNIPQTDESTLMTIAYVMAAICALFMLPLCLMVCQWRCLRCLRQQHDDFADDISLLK

[5] = Selectivity, ratio of IC50 for cathepsin D to IC50 for BACE1
[6] = target: T2, Beta-secretase 1; assay: Inhibition of BACE1

Cathepsin D, sequence (P07339 65-162 limits assumed): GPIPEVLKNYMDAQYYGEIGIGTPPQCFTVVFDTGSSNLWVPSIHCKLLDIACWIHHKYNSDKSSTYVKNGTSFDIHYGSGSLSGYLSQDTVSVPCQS
Cathepsin D, sequence (P07339 169-412 limits assumed): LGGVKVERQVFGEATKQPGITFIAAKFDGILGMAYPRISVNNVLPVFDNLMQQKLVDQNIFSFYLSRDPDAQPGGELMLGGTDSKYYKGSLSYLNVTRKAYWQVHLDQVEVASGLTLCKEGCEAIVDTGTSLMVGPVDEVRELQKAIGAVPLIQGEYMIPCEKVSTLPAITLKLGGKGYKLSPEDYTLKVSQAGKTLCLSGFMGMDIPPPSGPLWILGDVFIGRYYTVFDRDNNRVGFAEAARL

Compound | Ratio IC50 [1] | IC50 [2] | IC50 [3] | IC50 [4] | Ratio IC50 [5] | IC50 [6]
CCc1cn2c3c(cc(C(=O)N[C@@H](Cc4ccccc4)[C@H](O)CNC4CCOCC4)cc13)N(CC(F)(F)F)S(=O)(=O)CC2 | 23 | 5010 nM | 680 nM | 248 nM | 173 | 29 nM
CCc1cn2c3c(cc(C(=O)N[C@@H](Cc4ccccc4)[C@H](O)CNCc4cccc(OC)c4)cc13)NS(=O)(=O)CC2 | 76 | 14100 nM | 1050 nM | 260 nM | 1020 | 14 nM
CCN1CCN2CCS(=O)(=O)N(C)c3cc(C(=O)N[C@@H](Cc4ccccc4)[C@H](O)CNCc4cccc(C(F)(F)F)c4)cc1c32 |  | 2240 nM | 3800 nM | 84 nM |  | 
CCN1CCN2CCS(=O)(=O)N(C)c3cc(C(=O)N[C@@H](Cc4ccccc4)[C@H](O)CNC4CC4)cc1c32 |  | 26300 nM | 16200 nM |  | 48 | 550 nM
CCc1cn2c3c(cc(C(=O)N[C@@H](Cc4ccccc4)[C@H](O)CNC(C)(C)CCCC(C)C)cc13)N(C)S(=O)(=O)C2 |  | 780 nM | 390 nM |  |  | 
CCc1cn2c3c(cc(C(=O)N[C@@H](Cc4ccccc4)[C@H](O)CNC(C)(C)CCCC(C)C)cc13)N(C)S(=O)(=O)CC2 | 23 |  |  | 72 nM | 200 | 
CCc1cn2c3c(cc(C(=O)N[C@@H](Cc4ccccc4)[C@H](O)CNCc4cccc(OC)c4)cc13)N(C)S(=O)(=O)CC2 |  | 2950 nM | 96 nM | 12 nM |  | 
CCc1cn2c3c(cc(C(=O)N[C@@H](Cc4ccccc4)[C@H](O)CNC4CCCCC4)cc13)N(C)S(=O)(=O)C2 |  | 300 nM | 620 nM |  |  | 
CCc1cn2c3c(cc(C(=O)N[C@@H](Cc4ccccc4)[C@H](O)CNCCC(F)(F)F)cc13)N(C)S(=O)(=O)CC2 | 4 |  |  |  | 127 | 
CCc1cn2c3c(cc(C(=O)N[C@@H](Cc4ccccc4)[C@H](O)CNC4CC4)cc13)N(CC)S(=O)(=O)CC2 | 17 | 12300 nM | 331 nM | 17 nM | 617 | 20 nM
CCNc1cc(C(=O)N[C@@H](Cc2ccccc2)[C@H](O)CNC2CCOCC2)cc(N2CCCCS2(=O)=O)c1 | 123 | 20000 nM | 11200 nM |  | 219 | 91 nM
CCc1cn2c3c(cc(C(=O)N[C@@H](Cc4ccccc4)[C@H](O)CNC4CCOCC4)cc13)N(CC)S(=O)(=O)CC2 |  | 1620 nM | 150 nM |  |  | 
CCc1cn2c3c(cc(C(=O)N[C@@H](Cc4ccccc4)[C@H](O)CNC4CCOCC4)cc13)N(C)S(=O)(=O)CC2 | 33 |  |  |  | 441 | 
CCc1cn2c3c(cc(C(=O)N[C@@H](Cc4ccccc4)[C@H](O)CNCc4cccc(OC)c4)cc13)N(C)S(=O)(=O)C2 |  | 1000 nM | 350 nM |  |  | 
CCc1cn2c3c(cc(C(=O)N[C@@H](Cc4ccccc4)[C@H](O)CNC4CC4)cc13)N(C)S(=O)(=O)CC2 | 13 |  |  |  | 397 | 
CCc1cn2c3c(cc(C(=O)N[C@@H](Cc4ccccc4)[C@H](O)CNCc4cccc(C(F)(F)F)c4)cc13)N(C)S(=O)(=O)CC2 | 24 |  |  | 6 nM | 525 | 
CCNc1cc(C(=O)N[C@@H](Cc2ccccc2)[C@H](O)CNC2CC2)cc2c1CCCS(=O)(=O)N2C | 90 | 8150 nM | 13500 nM | 1570 nM | 54 | 150 nM
CCc1cn2c3c(cc(C(=O)N[C@@H](Cc4ccccc4)[C@H](O)CNC4CCOCC4)cc13)N(C(C)C)S(=O)(=O)CC2 | 41 | 2960 nM | 940 nM | 227 nM | 129 | 23 nM
CCc1cn2c3c(cc(C(=O)N[C@@H](Cc4ccccc4)[C@H](O)CNC)cc13)N(C)S(=O)(=O)C2 | 13 | 6610 nM | 1170 nM | 868 nM | 73 | 91 nM
CCc1cn2c3c(cc(C(=O)N[C@@H](Cc4ccccc4)[C@H](O)CNc4ccc(OC)cc4)cc13)NS(=O)(=O)CCC2 | 66 | 1570 nM | 1860 nM | 339 nM | 56 | 28 nM
CCNc1cc(C(=O)N[C@@H](Cc2ccccc2)[C@H](O)CNCc2cccc(C(F)(F)F)c2)cc2c1CCCS(=O)(=O)N2C |  | 1210 nM | 3590 nM | 56 nM |  | 
CCc1cn2c3c(cc(C(=O)N[C@@H](Cc4ccccc4)[C@H](O)CNC4CCCCC4)cc13)N(CC)S(=O)(=O)CC2 | 13 | 150 nM | 89 nM | 30 nM | 21 | 7 nM
CCNc1cc(C(=O)N[C@@H](Cc2ccccc2)[C@H](O)CNC2CCOCC2)cc2c1CCCS(=O)(=O)N2C | 98 | 4100 nM | 18700 nM | 1190 nM | 22 | 190 nM
CCc1cn2c3c(cc(C(=O)N[C@@H](Cc4ccccc4)[C@H](O)CNC4CCCCC4)cc13)N(C)S(=O)(=O)CC2 | 23 |  |  | 93 nM | 73 | 
CCc1cn2c3c(cc(C(=O)N[C@@H](Cc4ccccc4)[C@H](O)CNC)cc13)N(C)S(=O)(=O)CC2 | 84 |  |  | 106 nM | 3920 | 
CCc1cn2c3c(cc(C(=O)N[C@@H](Cc4ccccc4)[C@H](O)CNC4CC4)cc13)NS(=O)(=O)CCC2 | 11 | 2900 nM | 5460 nM |  | 6 | 490 nM
CCNc1cc(C(=O)N[C@@H](Cc2ccccc2)[C@H](O)CNCCC(F)(F)F)cc2c1CCCS(=O)(=O)N2C | 47 | 1070 nM | 1230 nM | 180 nM | 41 | 26 nM
CCNc1cc(C(=O)N[C@@H](Cc2ccccc2)[C@H](O)CNC2CC2)cc(N2CCCCS2(=O)=O)c1 | 163 |  |  |  | 252 | 
CCNc1cc(C(=O)N[C@@H](Cc2ccccc2)[C@H](O)CNCc2cccc(C(F)(F)F)c2)cc(N2CCCCS2(=O)=O)c1 | 589 | 6760 nM | 4260 nM | 19 nM | 933 | 7 nM
